Reference: patent US20240408054A1, “COMPOSITIONS AND METHODS FOR […] OF R(-)-MDA” (priority 2023, published 2024)
Like-named read-outs stand apart in the source and are kept apart here.

What was measured:
[1] = racemic MDMA at 125 mg (FIG. 9); cited from earlier work
[2] = prior studies (Hysek 2012, 2014; Thompson 2007); cited from earlier work
[3] = other studies in healthy human subjects; cited from earlier work
[4] = Spoken Intensity Rating Scale (SIRS); type: in vivo, human
[5] = Phase 1 clinical study: pharmacokinetics (plasma); type: in vivo, human
[6] = 5-Dimensions-Altered States of Consciousness (5D-ASC); type: in vivo, human
Text: This is generally unexpected given the prior results that have been reported for MDMA. One notable finding from the assessment is the ratio of Oceanic Boundlessness (OB) to Dread of Ego Dissolution (DED), which are considered a useful metric. OB is positively correlated with psychedelic-mediated antidepressant efficacy while DED is negatively correlated. […] The OB-DED ratio is consistent with the 11-Dimensional Altered States of Consciousness (11D-ASC, see below).

[7] = 11-Dimensions-Altered States of Consciousness (11D-ASC); type: in vivo, human
Text: The results of the 11D-ASC assessment further confirms the unexpected psychedelic-like response associated with R(−)-MDMA.

[8] = Visual Analog Scale (VAS) subjective experience; type: in vivo, human
Text: Visual Analogue Scales (VAS) was used to measure subjective experience, including experiences such as Happy, Open, Loving, Close to Others, Sociable, and Lonely. […] Some signal increases were observable for acute increases in the VAS scores of Happy, Open, and Loving experiences, and an acute decrease associated with Lonely (FIG. 2). However, the degree of those signals was far less than previously reported signals for racemic MDMA. These effects for R(−)-MDMA were observable within the acute treatment phase and were dimished (relative to baseline) after 18 hours post-dosing. […] However, R(−)-MDMA did show a consistent pattern in the 225 mg cohort, with highest changes relative to baseline and with similar directionality as the effects reported for racemic MDMA.

[9] = Neuroendocrine effects (hormone concentrations); type: in vivo, human
[10] = Depression Anxiety Stress Scale (DASS); type: in vivo, human; conditions: for DASS Anxiety Difference with Placebo and 95% CI / DASS Depression Difference with Placebo and 95% CI / DASS Stress Difference with Placebo and 95% CI / DASS Anxiety LSMean and 95% CI / DASS Depression LSMean and 95% CI / DASS Stress LSMean and 95% CI: Day 8; for DASS Anxiety LSMean and 95% CI / DASS Depression LSMean and 95% CI / DASS Stress LSMean and 95% CI: change from baseline
Text: The Depression Anxiety Stress Scale (DASS) is a 42-item self-report instrument for measuring depression, anxiety and tension/stress.

[11] = Self-Connectedness Scale / Self-Compassion Scale (SCS); type: in vivo, human; conditions: for Self-Connectedness Scale LSMean and 95% CI: change from baseline
Text: The Self-Compassion Scale (SCS) is a 12-item self-report measure that is used by adults to measure their capacity for self-compassion-the ability to hold one's feelings of suffering with a sense of warmth, connection and concern.

[12] = Emotional Breakthrough Inventory (EBI); type: in vivo, human; conditions: 75-225 mg
Text: Self-reported breakthrough responses included: facing emotionally difficult feelings that are usually pushed aside; experiencing resolution of a personal conflict or trauma; ability to explore challenging emotions and memories; having an emotional breakthrough; achieving a sense of closure on an emotional problem; achieving emotional release followed by sense of relief.

[13] = design: species or system human; conditions: in vivo
[14] = Challenging Experiences Questionnaire (CEQ); type: in vivo, human; conditions: 6.5 hours post dosing
Text: Seven Challenging Experiences Questionnaire (CEQ) factors (grief, fear, death, insanity, isolation, physical distress, and paranoia) provide a phenomenological profile of challenging aspects of experiences with R(−)-MDMA.

[15] = Phase 1 clinical study: safety and tolerability; conditions: healthy volunteers, single oral dose 75-225 mg
[16] = Multifaceted Empathy Test (MET); type: in vivo, human
Text: The Multifaceted Empathy Test (MET) measures cognitive empathy (CE), explicit emotional empathy (EEE) and implicit emotional empathy (IEE). Hurlemann R, et al., (2010) Oxytocin enhances amygdala-dependent, socially reinforced learning and emotional empathy in humans. J Neurosci 30:4999-5007.

[17] = 75-225 mg, statistical significance at higher doses
[18] = any cohort compared with the placebo group

In the case of `CNC(C)Cc1ccc2c(c1)OCO2` (racemic) [racemic MDMA, 3,4-methylenedioxymethamphetamine], the 11D-ASC response profile [1] is given as “no visual hallucinations and little to no insightfulness”, the oxytocin release [2] is given as 5-6 x and the “VAS Happy, Open, Loving, Close to Others, and Sociable” value [3] is given as “acute and substantial increases”.

In the case of `CN[C@H](C)Cc1ccc2c(c1)OCO2` [R(−)-MDMA], the SIRS dose response ([4]; 75-225 mg oral) is reported as “very strong dose response”, the “time of peak SIRS relative to plasma PK Tmax” value ([4]; each dose) is reported as “much earlier than the plasma PK Tmax at each dose” and the “systemic exposure (Cmax/AUC) to the active metabolite R(−)-MDA” value ([5]; after R(−)-MDMA dosing, at higher doses) is reported as “increased with doses in a slightly less than dose-dependent manner”. For the same molecule, the PK food effects ([5]; fasted cohorts versus one fed arm) was “No patterns in the data suggested any substantial PK food effects”, the “AUC0-24h compared to prior reports for total MDMA following racemic-MDMA dosing” value ([5]; plasma) was “substantially higher” and the “Systemic exposure (Cmax and AUC)” value ([5]; plasma, 75-225 mg oral) was “increase with increasing doses in a generally dose-dependent manner”. For the same molecule, the “pharmacokinetics, dose dependence” value ([5]; plasma, 75-225 mg oral) was “dose-dependent pharmacokinetics”, the “ratio of Oceanic Boundlessness (OB) to Dread of Ego Dissolution (DED)” value ([6]; 175 mg cohort) was “very favorable ratio” and the “5D-ASC subcomponents and total score” value [6, 17] was “dose-dependent increase in all measured subcomponents”. For the same molecule, the 11D-ASC response profile ([7]; 175 mg and 225 mg, compared with psilocybin) was “many similarities to that of psilocybin, with slightly less imagery and slightly more insightfulness”, the “11D-ASC subcomponents and total score” value [7, 17] was “dose-dependent increase in all measured subcomponents” and the “VAS scores for Close to Others and Sociable” value ([8]; all cohorts) was “showed no changes from baseline compared to placebo in all cohorts”. The “VAS scores for Happy, Open, Loving, and Lonely” value ([8]; compared to placebo control) was “showed changes from baseline (prior to treatment) in a dose-dependent manner”, the “concentration of mature brain-derived neurotrophic factor” value [9, 18] was “no obvious change from baseline” and the concentration of oxytocin [9, 18] was “no obvious change from baseline”. For the same molecule, the concentration of prolactin ([9]; compared with the placebo group) was “consistent increase”, the DASS anxiety ([10]; Day 8, compared to placebo) was “lowered anxiety at lower doses but increased anxiety at 225 mg compared to placebo” and the “DASS Anxiety Difference with Placebo and 95% CI” value ([10]; 75 mg oral) was −1.04. The “DASS Depression Difference with Placebo and 95% CI” value ([10]; 75 mg oral) was −0.15, the “DASS Stress Difference with Placebo and 95% CI” value ([10]; 75 mg oral) was −0.93 and the “DASS Anxiety Difference with Placebo and 95% CI” value ([10]; 125 mg oral) was −1.07. For the same molecule, the “DASS Depression Difference with Placebo and 95% CI” value ([10]; 125 mg oral) was −0.26, the “DASS Stress Difference with Placebo and 95% CI” value ([10]; 125 mg oral) was −0.91 and the “DASS Anxiety Difference with Placebo and 95% CI” value ([10]; 175 mg oral) was −1.08. For the same molecule, the “DASS Depression Difference with Placebo and 95% CI” value ([10]; 175 mg oral) was −0.03, the “DASS Stress Difference with Placebo and 95% CI” value ([10]; 175 mg oral) was 1.11 and the “DASS Anxiety Difference with Placebo and 95% CI” value ([10]; 225 mg oral) was 0.94. For the same molecule, the “DASS Depression Difference with Placebo and 95% CI” value ([10]; 225 mg oral) was 1.29, the “DASS Stress Difference with Placebo and 95% CI” value ([10]; 225 mg oral) was 1.68 and the “DASS Anxiety LSMean and 95% CI” value ([10]; 75 mg oral) was −1.22. For the same molecule, the “DASS Depression LSMean and 95% CI” value ([10]; 75 mg oral) was −1.03, the “DASS Stress LSMean and 95% CI” value ([10]; 75 mg oral) was −2.57 and the “DASS Anxiety LSMean and 95% CI” value ([10]; 125 mg oral) was −1.24. The “DASS Depression LSMean and 95% CI” value ([10]; 125 mg oral) was −1.14, the “DASS Stress LSMean and 95% CI” value ([10]; 125 mg oral) was −2.54 and the “DASS Anxiety LSMean and 95% CI” value ([10]; 175 mg oral) was −1.26. For the same molecule, the “DASS Depression LSMean and 95% CI” value ([10]; 175 mg oral) was −0.91, the “DASS Stress LSMean and 95% CI” value ([10]; 175 mg oral) was −0.52 and the “DASS Anxiety LSMean and 95% CI” value ([10]; 225 mg oral) was 0.76. The “DASS Depression LSMean and 95% CI” value ([10]; 225 mg oral) was 0.41, the “DASS Stress LSMean and 95% CI” value ([10]; 225 mg oral) was 0.05 and the “Self-Connectedness Scale Difference with Placebo and 95% CI” value ([11]; Day 2, 75 mg oral) was 0.14. The “Self-Connectedness Scale Difference with Placebo and 95% CI” value ([11]; Day 2, 125 mg oral) was 0.33, the “Self-Connectedness Scale Difference with Placebo and 95% CI” value ([11]; Day 2, 175 mg oral) was 0.42 and the “Self-Connectedness Scale Difference with Placebo and 95% CI” value ([11]; Day 2, 225 mg oral) was 0.26. The “SCS changes from baseline” value ([11]; Day 2 and Day 8) was “clear dose-dependent response with statistical significance at Day 8”, the “Self-Connectedness Scale Difference with Placebo and 95% CI” value ([11]; Day 8, 75 mg oral) was 0.37 and the “Self-Connectedness Scale Difference with Placebo and 95% CI” value ([11]; Day 8, 125 mg oral) was 0.40. For the same molecule, the “Self-Connectedness Scale Difference with Placebo and 95% CI” value ([11]; Day 8, 175 mg oral) was 0.41, the “Self-Connectedness Scale Difference with Placebo and 95% CI” value ([11]; Day 8, 225 mg oral) was 0.52 and the “Self-Connectedness Scale LSMean and 95% CI” value ([11]; Day 2, 75 mg oral) was 0.04. The “Self-Connectedness Scale LSMean and 95% CI” value ([11]; Day 2, 125 mg oral) was 0.23, the “Self-Connectedness Scale LSMean and 95% CI” value ([11]; Day 2, 175 mg oral) was 0.32 and the “Self-Connectedness Scale LSMean and 95% CI” value ([11]; Day 2, 225 mg oral) was 0.16. For the same molecule, the “Self-Connectedness Scale LSMean and 95% CI” value ([11]; Day 8, 75 mg oral) was 0.08, the “Self-Connectedness Scale LSMean and 95% CI” value ([11]; Day 8, 125 mg oral) was 0.12 and the “Self-Connectedness Scale LSMean and 95% CI” value ([11]; Day 8, 175 mg oral) was 0.12. For the same molecule, the “Self-Connectedness Scale LSMean and 95% CI” value ([11]; Day 8, 225 mg oral) was 0.24, the EBI observations [12] was “clear dose-dependent response with statistical significance at higher doses” and the “FERT mean happiness reaction time” value [13] was “reduction in the mean happiness reaction time”. The “FERT median reaction time” value [13] was “greater reduction in the median reaction time”, the “CEQ changes from baseline” value [14] was “clear dose-dependent response with statistical significance at higher doses” and the Peak body temperatures [15] was “fell within the normal range”. For the same molecule, the “Treatment-related adverse events: headache” value [15] was 16.7%, the “Treatment-related adverse events: nausea” value [15] was 29.2% and the “serious or severe AEs” value [15] was “no serious or severe AEs”. For the same molecule, the study discontinuations [15] was “no study discontinuations”, the tolerability [15] was “well-tolerated” and the “blood pressure and heart rate” value ([15]; limited dose dependency) was “Non-clinically significant increases”. The “MET scores: CE positive, EEE all and EEE negative emotions” value ([16]; all cohorts) was “showed no changes from baseline compared to placebo in all cohorts” and the “MET LSmean scores: CE all, CE negative, EEE positive, IEE all, IEE positive, IEE negative emotions” value ([16]; near 3.5 hours) was “showed changes from baseline in a dose-dependent manner”.
